Converted amounts (≈) assume the structure as drawn.
Tests used:
Test in all cases: microbe, parasite or virus in culture
Mtb KZN494/MDR = type: cell-based, Mycobacterium tuberculosis; conditions: Mycobacterium tuberculosis, KZN494/MDR, read-out: Mtb MIC KZN494/MDR
Mtb V2475/MDR = type: cell-based; conditions: Mycobacterium tuberculosis, read-out: Mtb MIC V2475/MDR
Mtb R506/XDR = type: cell-based; conditions: Mycobacterium tuberculosis, read-out: Mtb MIC R506/XDR
Mtb TF274/XDR = type: cell-based; conditions: Mycobacterium tuberculosis, read-out: Mtb MIC TF274/XDR

Cc1ccc2nc(C)c(C(=O)NCCCC3CCCCC3)n2c1 [Compound 15, N-(3-cyclohexylpropyl)-2,6-dimethylimidazo[1,2-a]pyridine-3-carboxamide]
MIC (Mtb KZN494/MDR): 0.05 µM (≈ 0.0157 µg/mL)
MIC (Mtb V2475/MDR): 0.2 µM (≈ 0.0627 µg/mL)
MIC (Mtb R506/XDR): 0.1 µM (≈ 0.0313 µg/mL)
MIC (Mtb TF274/XDR): 0.2 µM (≈ 0.0627 µg/mL)

Cc1nc2ccc(Cl)cn2c1C(=O)NCCCC1CCCCC1 [Compound 16, 6-chloro-N-(3-cyclohexylpropyl)-2-methylimidazo[1,2-a]pyridine-3-carboxamide]
MIC (Mtb KZN494/MDR): 0.09 µM (≈ 0.03 µg/mL)
MIC (Mtb V2475/MDR): 0.37 µM (≈ 0.124 µg/mL)
MIC (Mtb R506/XDR): 0.75 µM (≈ 0.25 µg/mL)
MIC (Mtb TF274/XDR): 1.5 µM (≈ 0.501 µg/mL)

From paper PMC8720286 (Chemical biology & drug design, 2020)
